These results are taken from article PMC6251916, “CKD-506, a novel HDAC6-selective inhibitor, improves renal outcomes and survival in a mouse model of systemic lupus erythematosus” (Scientific Reports, 2018).

For data set [1], the system named is NZB/W F1 female mice. Put plainly: Murine SLE model: cytokine levels in kidney extracts. Type of data set: in vivo, mouse. The following applies: group P: methylprednisolone 5 mg/kg/day; at autopsy; mean ± SD; n = 13. The procedure: The kidneys were weighed and then transferred into dPBS (Welgene) supplemented with anti-protease Complete TM cocktail (Boehringer) using 12.5 μl of dPBS per milligram of wet weight tissue. Samples were homogenized twice using an Automill TK-AM5 freeze-crushing cell homogenizer (W 280 mm × D 390 mm × H 290 mm, Tokken Inc., Chiba, Japan) at 1,400 rpm for 90 seconds and then centrifuged at 16,000 × g for 15 min at 4 °C. The supernatants were collected and total protein concentrations were determined in the kidney extracts using a bicinchoninic acid (BCA) protein assay kit™ (Pierce). Total protein concentrations of the kidney extracts were adjusted to 2 mg/dl and used for the analysis of IFN-γ, IL-10, IL-15, IL-17, IL-1β, IL-4, IL-6, IP-10, MCP-1, CCL4, RANTES, TNF-α and sCD40L with Milliplex® MAP Kits (Millipore).

Data set [2] deals with NZB/W F1 female mice. Put plainly: Murine SLE model: serum chemistry and necropsy. The following applies: group P: methylprednisolone 5 mg/kg/day; serum at autopsy; mean ± SD.
Description: Control mice received 150 μL of vehicle (Ethanol: Kolliphor® EL: saline = 1:1:8) and were subjected to the same schedule. Survival rate and incidence of severe proteinuria (percent individual mice with urine protein ≥300 mg/dL) were calculated. Survival had been monitored until 42 weeks of age.
Data set [3] deals with NZB/W F1 female mice. Description: Murine SLE model: BUN and anti-dsDNA antibody levels. The following applies: methylprednisolone 5 mg/kg/day. Type of data set: in vivo, mouse. How it is done: (§1) Survival had been monitored until 42 weeks of age.
Blood samples had been collected from mice under isoflurane anesthesia every 4 weeks (at 24, 28, 32, 36, 40 weeks of age and autopsy), and the obtained serum samples had been kept at −70 °C until the analysis.

For data set [4], the system named is NZB/W F1 female mice. Description: Murine SLE model: survival, severe proteinuria, UP/C. It counts as in vivo, mouse. The following applies: methylprednisolone 5 mg/kg/day i.p. The procedure:
as §1
During the experiments, urine protein levels had been measured every 2 weeks. Fresh urine was collected by performing abdominal massages. Urine protein was measured with the Coomassie Brilliant Blue method as described in our previous study. Urine creatinine was measured using a DRI-CHEM 3000 Colorimetric analyzer (Fujifilm, Tokyo, Japan) with the urine diluted in deionized water (1:100 dilution).

Data set [5] deals with NZB/W F1 female mice. Put plainly: Murine SLE model: serum cytokine levels (Milliplex). It counts as in vivo, mouse. How it is done: Serum samples were assayed using Milliplex® MAP Kits (Millipore) for granulocyte macrophage-colony stimulating factor (GM-CSF), interferon-γ (IFN-γ), interleukin-1α (IL-1α), IL-1β, IL-10, IL-12(p70), IL-15, IL-17a, IL-2, IL-4, IL-6, tumor necrosis factor α (TNF-α), transforming growth factor beta 1 (TGF-β1), IL-22, IL-23, IFN-inducible protein 10 (IP-10 (CXCL10)) and chemokine (C-C motif) ligand 2 (CCL2 (MCP-1)).

Data set [6] has as its system NZB/W F1 female mice. Put plainly: Murine SLE model: flow cytometry of splenocytes. It counts as in vivo, mouse. The following applies: methylprednisolone 5 mg/kg/day. An excerpt: Single cell suspensions were obtained from the spleens of NZB/W F1 mice at autopsy (at 43–44 weeks of age). The splenocytes were stained with PerCP-Cy5.5-conjugated anti-mouse CD3e (PerCP-cy5.5-CD3e, eBioscience, San Diego, CA, USA), fluorescein isothiocyanate (FITC)-conjugated anti-mouse CD4 (FITC-CD4, BD Biosciences, San Jose, CA, USA), PE-cyanine7-conjugated anti-mouse CD8a (eBioscience), allo-phycocyanin (APC)-conjugated anti-mouse CD25 (BD Biosciences) and PE-conjugated anti-mouse CD138 (BD Biosciences).
T cell profile was analyzed as described previously; briefly, we examined proportions of Th1 cells (CD4^+CD25^+T-bet^+), Th2 cells (CD4^+CD25^+GATA-3^+), Th17 cells (CD4^+CD25^+ROR-γt^+), and Treg cells (CD4^+CD25^+Foxp3^+). To analyze T helper subsets, the splenocytes were stained with antibodies to CD4 and CD25 (FITC-conjugated anti-mouse CD4 and APC-conjugated anti-mouse CD25, BD Biosciences). Cells were fixed and permeabilized prior to staining with T-bet, GATA-3, ROR-γt and Foxp3 antibodies (PE-, BD Biosciences).
(In general: Flow cytometry measures light scatter and fluorescence of single cells or particles in a stream.)

Data set [7] concerns NZB/W F1 female mice. Put plainly: Murine SLE model: kidney histopathology (H&E, PAS, Masson trichrome). It counts as in vivo, mouse. The following applies: methylprednisolone 5 mg/kg/day.
Description: as §1
Kidneys were harvested from mice at the end of the study (at 43–44 weeks of age). For light microscopy, the tissues were fixed in 10% neutral buffered formalin, embedded in paraffin wax, sectioned at a thickness of 5 μm and stained with H&E (BBC Biochemical, Mount Vernon, WA, USA). Periodic acid/Schiff (PAS stain kit, BBC Biochemical) staining and Masson trichrome (BBC Biochemical) staining were used for the detection of […] and fibrosis, respectively. Inflammatory cell infiltration and mesangial proliferation were scored on a 4-point scale as 0 (none), 1+ (mild), 2+ (moderate), 3+ (moderate to severe) and 4+ (severe).

Details of data set [8]: method as in PMID 27646843. The following applies: cited from earlier work.
A further data set concerns HDAC6 and HDAC1. Also noted: method as in PMID 22262760. The following applies: cited from earlier work.
The mark [9] stands for this setting: group P: methylprednisolone 5 mg/kg/day, at autopsy, mean ± SD, n = 13.

`C[C@H]1C[C@@H]2[C@H]([C@@H](O)C[C@@]3(C)[C@H]2CC[C@]3(O)C(=O)CO)[C@@]2(C)C=CC(=O)C=C12` [methylprednisolone, reference compound]: in the data set on NZB/W F1 female mice [1], the “Kidney extract CCL2” value amounted to 19.91 ± 11.71 pg/mL, the “Kidney extract CCL4” value turned out to be 0.60 ± 1.84 pg/mL, the “Kidney extract IFN-γ” value came out at 16.91 ± 5.10 pg/mL and the “Kidney extract IL-1β” value is 4.80 ± 2.85 pg/mL. Moreover, in the data set on NZB/W F1 female mice [1], the “Kidney extract IL-4” value was 0.06 ± 0.08 pg/mL, the “Kidney extract IL-6” value is 2.95 ± 0.59 pg/mL, the “Kidney extract IL-10” value was 12.14 ± 2.02 pg/mL and the “Kidney extract IL-15” value turned out to be 40.90 ± 9.01 pg/mL. In the data set on NZB/W F1 female mice [1], the “Kidney extract IP-10” value is 50.64 ± 15.63 pg/mL, the “Kidney extract RANTES” value was 9.77 ± 15.22 pg/mL and the “Kidney extract TNF-α” value worked out at 0.07 ± 0.24 pg/mL. The compound also displayed a Ca with NZB/W F1 female mice [2] of 9.35 ± 0.53 mg/dL. The “Levels of BUN vs vehicle” value in the data set on NZB/W F1 female mice [3] (36 weeks of age) was “significantly lower”. In addition, the “Levels of BUN vs vehicle” value in the data set on NZB/W F1 female mice [3] (at autopsy) is reported as “significantly lower”. The “Survival rate at the end of the study” value in the data set on NZB/W F1 female mice [4] (42-weeks of age) is reported as 93.3%. The “incidence of severe proteinuria (urine protein >300 mg/dl)” value in the data set with NZB/W F1 female mice [4] (42 weeks of age) is 20%. For the same compound, in the data set with NZB/W F1 female mice [5] (setting [9]), the “Serum IFN-γ” value came out at 0.07 ± 0.24 pg/mL, the “Serum IL-1α” value was found to be 666.21 ± 527.20 pg/mL, the “Serum IL-1β” value was 0.65 ± 2.34 pg/mL and the “Serum IL-2” value is 0.09 ± 0.34 pg/mL. In the data set with NZB/W F1 female mice [5] (setting [9]), the “Serum IL-4” value turned out to be 1.49 ± 0.20 pg/mL, the “Serum IL-6” value turned out to be 3.36 ± 3.30 pg/mL, the “Serum IL-10” value is 18.41 ± 12.97 pg/mL and the “Serum IL-12(70)” value came out at 1.04 ± 3.76 pg/mL. Further, in the data set on NZB/W F1 female mice [5] (setting [9]), the “Serum IL-15” value amounted to 45.25 ± 14.91 pg/mL, the “Serum IL-17” value came to 3.59 ± 1.73 pg/mL, the “Serum IL-22” value amounted to 17.68 ± 16.19 pg/mL and the “Serum IL-23” value came out at 22.31 ± 61.77 pg/mL. Further, in the data set on NZB/W F1 female mice [5] (setting [9]), the “Serum TGF-β1” value worked out at 66067.78 ± 18777.09 pg/mL and the “Serum TNF-α” value worked out at 1.57 ± 2.07 pg/mL. Besides, the “Mean serum levels of CCL2 vs vehicle” value in the data set on NZB/W F1 female mice [5] (methylprednisolone 5 mg/kg/day, 36 weeks of age, difference not statistically significant) is recorded as “lower”. Besides, the “ratio of CD4+CD8−/CD4−CD8+ T cells in spleen vs vehicle” value in the data set on NZB/W F1 female mice [6] is “significantly lower”. In the data set with NZB/W F1 female mice [6] (spleen), the “fewer CD4−CD8− cells compared with group vehicle” value is recorded as 4.3% and the “fewer CD138+ cells compared with group vehicle” value worked out at 16.3%. Besides, the “Degree of inflammatory cell infiltration in kidneys vs vehicle” value with NZB/W F1 female mice [7] is recorded as “significantly lower”.
Consider `O=C(CCCCCCNC(=O)c1cnc(N(c2ccccc2)c2ccccc2)nc1)NO` [ACY-1215], for which the “significant adverse effects reported in clinical trials” value in [8] is “grade 3 anemia and neutropenia”. Further, the “selectivity for HDAC6 and HDAC1 at IC50” value in the data set with HDAC6 and HDAC1 was 11 fold.
